Results on 12 molecules are retold here after ChEMBL document CHEMBL3745608, “Structure-based design, synthesis, and biological evaluation of Leu-Arg dipeptide analogs as novel hepsin inhibitors” (Bioorg Med Chem Lett, 2016).

Where a SMILES comes first, the peptide text is derived from it. A value given as a limit tells only on which side of the number the result lay.

One experiment has as its target Serine protease hepsin (Homo sapiens, UniProt P05981). As to the kind of experiment: Inhibition of human recombinant hepsin using Boc-QAR-AMC as substrate preincubated for 30 mins followed by substrate addition measured for 15 to 120 mins by plate reader analysis.
Experiment [1] concerns the target T1, Suppressor of tumorigenicity 14 protein homolog (Mus musculus, UniProt P56677).
T1 sequence (P56677 whole entry): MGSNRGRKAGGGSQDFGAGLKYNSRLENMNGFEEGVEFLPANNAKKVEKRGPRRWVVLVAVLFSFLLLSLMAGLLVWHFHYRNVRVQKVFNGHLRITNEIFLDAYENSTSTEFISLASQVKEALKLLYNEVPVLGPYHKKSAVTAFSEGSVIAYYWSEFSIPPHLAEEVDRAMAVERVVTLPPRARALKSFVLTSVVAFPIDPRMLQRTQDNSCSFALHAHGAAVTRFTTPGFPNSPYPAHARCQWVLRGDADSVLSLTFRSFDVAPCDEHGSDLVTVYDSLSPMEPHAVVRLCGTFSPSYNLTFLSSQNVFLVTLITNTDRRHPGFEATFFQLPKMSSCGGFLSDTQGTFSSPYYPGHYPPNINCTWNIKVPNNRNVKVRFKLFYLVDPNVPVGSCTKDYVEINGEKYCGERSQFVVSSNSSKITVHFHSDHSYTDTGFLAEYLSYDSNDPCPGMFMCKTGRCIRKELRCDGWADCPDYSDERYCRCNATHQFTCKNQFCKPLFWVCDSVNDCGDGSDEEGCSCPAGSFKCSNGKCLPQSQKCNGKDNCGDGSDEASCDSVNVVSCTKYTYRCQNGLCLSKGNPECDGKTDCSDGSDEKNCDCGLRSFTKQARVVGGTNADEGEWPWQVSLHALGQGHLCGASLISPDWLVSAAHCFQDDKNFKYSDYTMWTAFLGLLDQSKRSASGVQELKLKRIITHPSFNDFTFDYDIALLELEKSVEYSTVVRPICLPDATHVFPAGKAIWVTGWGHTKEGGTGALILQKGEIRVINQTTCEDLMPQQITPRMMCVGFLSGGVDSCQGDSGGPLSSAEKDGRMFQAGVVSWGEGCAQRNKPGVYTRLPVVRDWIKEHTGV
As to the kind of experiment: Inhibition of mouse recombinant matriptase using Boc-QAR-AMC as substrate preincubated for 30 mins followed by substrate addition measured for 15 to 120 mins by plate reader analysis.

The nature of experiment [2]: Selectivity ratio of Ki for mouse recombinant matriptase to Ki for human recombinant hepsin.

Serine protease hepsin, sequence (P05981 1-162 limits assumed): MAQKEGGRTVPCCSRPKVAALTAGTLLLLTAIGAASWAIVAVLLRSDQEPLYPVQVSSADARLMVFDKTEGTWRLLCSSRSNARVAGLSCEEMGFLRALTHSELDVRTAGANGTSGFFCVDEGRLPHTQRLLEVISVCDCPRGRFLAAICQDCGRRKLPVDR
Serine protease hepsin, sequence (P05981 163-417 limits assumed): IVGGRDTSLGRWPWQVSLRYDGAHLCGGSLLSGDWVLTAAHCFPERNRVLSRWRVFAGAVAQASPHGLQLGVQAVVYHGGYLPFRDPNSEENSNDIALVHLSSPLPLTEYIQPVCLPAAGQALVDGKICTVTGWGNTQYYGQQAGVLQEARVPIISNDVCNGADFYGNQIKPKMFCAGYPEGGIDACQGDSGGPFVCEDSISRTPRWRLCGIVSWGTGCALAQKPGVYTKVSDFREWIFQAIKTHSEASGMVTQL

Turning to `CC(=O)N[C@@H](CC(C)C)C(=O)N[C@H](CCCNC(=N)N)C(=O)c1ccccc1`, the Ki (on Serine protease hepsin; in experiment [1]) was > 10 µM in each case.
`CC(=O)N[C@@H](CC(C)C)C(=O)N[C@@H](CCCN=C(N)N)C(=O)c1nc2ccccc2s1`: the Ki on Serine protease hepsin stood at 0.00338 µM; in experiment [1], 0.227 µM. Further, the Ratio Ki in experiment [2] is > 60.
As to `CC(=O)N[C@@H](CCCCN)C(=O)N[C@@H](CCC(N)=O)C(=O)N[C@@H](CC(C)C)C(=O)N[C@@H](CCCNC(=N)N)C(=O)c1nccs1`, the values for the Ki (on Serine protease hepsin; in experiment [1]) were 0.00145 µM and 0.0104 µM, respectively.
`CC(=O)N[C@@H](CCC(N)=O)C(=O)N[C@@H](CC(C)C)C(=O)N[C@@H](CCCNC(=N)N)C(=O)c1nccs1`: the figures for the Ki (on Serine protease hepsin; in experiment [1]) were 0.00104 µM and 0.0113 µM, respectively. The Ratio Ki in experiment [2] was determined as 8.
For `CC(=O)N[C@@H](CC(C)C)C(=O)N[C@H](CCCNC(=N)N)C(=O)c1nc2ccccc2s1` the same measures were 0.00291 µM, 0.177 µM and > 60.
With `CC(=O)N[C@@H](CCC(N)=O)C(=O)N[C@@H](CC(C)C)C(=O)N[C@H](CCCNC(=N)N)C(=O)c1nccs1`, the results for the Ki (at Serine protease hepsin; in experiment [1]) were 0.00288 µM and 0.0111 µM, respectively. For the same molecule, the Ratio Ki in experiment [2] stood at 8.
`CC(=O)N[C@@H](CC(C)C)C(=O)N[C@@H](CCCNC(=N)N)C(=O)c1nccs1`: the Ki at Serine protease hepsin was 0.0224 µM; in experiment [1], 0.334 µM. For the same molecule, in experiment [2], the Ratio Ki was 8.
As for `CC(=O)N[C@@H](CC(C)C)C(=O)N[C@@H](CCCNC(=N)N)C(=O)c1ccccc1`, the Ki (on Serine protease hepsin; in experiment [1]) was > 10 µM each time.
Consider `CC(=O)N[C@@H](CCCNC(=N)N)C(=O)c1nccs1`, for which the Ki (on Serine protease hepsin; in experiment [1]) was > 10 µM each time.
`CC(=O)N[C@@H](CCCCN)C(=O)N[C@@H](CCC(N)=O)C(=O)N[C@@H](CC(C)C)C(=O)N[C@H](CCCNC(=N)N)C(=O)c1nccs1`: the Ki on Serine protease hepsin came out at 0.00083 µM; in experiment [1] it was 0.008 µM.
Regarding `CC(=O)N[C@@H](CC(C)C)C(=O)N[C@H](CCCNC(=N)N)C(=O)c1nccs1`, the Ki on Serine protease hepsin amounted to 0.0215 µM; in experiment [1], 0.246 µM. For the same molecule, the Ratio Ki in experiment [2] came to 8.
Regarding `CC(=O)N[C@@H](CCCCN)C(=O)N[C@@H](CCC(N)=O)C(=O)N[C@@H](CC(C)C)C(=O)O` (Ac-Lys-Gln-Leu-OH), the Ki (at Serine protease hepsin; in experiment [1]) was > 10 µM in each case.
